By IC50 is commonly meant the concentration that gives 50% inhibition. As usually defined, the inhibition is the relative decrease from the control value, in per cent. Broadly, the Kd is a measure of binding affinity in units of concentration.

These results are taken from patent US9309222B2, “Phenyl linked quinolinyl modulators of RORγt” (Janssen Pharmaceutica NV, priority 2012, dated 2016).

The target in one assay is T1, human RORγt LBD (Homo sapiens, UniProt P51449).
T1 construct: expressed in transfected cells
T1 sequence (P51449 258-518): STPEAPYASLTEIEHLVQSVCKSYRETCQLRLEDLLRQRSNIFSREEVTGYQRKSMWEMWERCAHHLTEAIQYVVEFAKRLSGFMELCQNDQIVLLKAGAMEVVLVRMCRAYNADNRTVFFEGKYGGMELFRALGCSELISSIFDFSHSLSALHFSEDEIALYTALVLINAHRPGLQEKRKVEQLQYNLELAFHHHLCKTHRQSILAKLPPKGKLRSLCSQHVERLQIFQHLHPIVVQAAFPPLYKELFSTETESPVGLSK
Briefly: RORγt reporter assay (GAL4-RORγt LBD luciferase in HEK293T cells). Type of assay: cell-based. To be noted: for IC50: HEK293T cells, 24 hours compound treatment; for inhibition at 6 µM: HEK-293T, read-out: RORγt reporter Assay, % inhibition @ 6 μM, HEK293T cells, 6 μM compound. The source says: A reporter assay was used to test functional activity of RORγt modulatory compounds on transcriptional activation driven by the RORγt LBD. Cells used in the assay were co-transfected with two constructs. The first construct, pBIND-RORγt LBD, contained the wild type human RORγt LBD fused to the DNA binding domain of the GAL4 protein. The second construct, pGL4.31 (Promega Cat no. C935A), contained multiple GAL4 responsive DNA elements upstream of firefly luciferase. […] The mutant construct was called pBIND-RORγt-AF2.
The pBIND vector contains the GAL4 DNA Binding Domain (GAL4 DBD) and the renilla luciferase gene under control of the SV40 promoter. Renilla luciferase expression serves as a control for transfection efficiency and cell viability.
The reporter assay was performed by transiently transfecting HEK293T cells with 5 ng of pBIND-RORγt LBD or pBIND-RORγt LBD-AF2 and 5 μg pGL4.31 (Promega Cat no. C935A) using Fugene 6 (Invitrogen Cat no. E2691) at a 1:6 ratio of DNA:Fugene 6 in a T-75 flask in which cells were at least 80% confluent. Twenty four hours after bulk transfection, cells were plated into 96-well plates at 50,000 cells/well in phenol-red free DMEM containing 5% Lipid Reduced FCS and Pen/Strep. Six hours after plating, cells were treated with compounds for 24 hours. Media was removed and cells were lysed with 50 μL 1× Glo Lysis Buffer (Promega). Dual Glo Luciferase Reagent (50 μL/well) was then added and firefly luciferase luminescence was read on an Envision after a ten minute incubation. Finally, Stop and Glo reagent (50 μL/well) was added and renilla luciferase luminescence was read on an Envision after a ten minute incubation. To calculate the effect of compounds on RORγt activity, the ratio of firefly to renilla luciferase was determined and plotted against compound concentration. Agonist compounds increase RORγt-driven luciferase expression, and antagonist or inverse agonist compounds decrease luciferase expression.
For orientation: Reporter assays use an easily measured gene product as a stand-in for the process of interest.

The target of assay [1] is T2, human RORγt ligand binding domain (RORγt LBD) (Homo sapiens, UniProt P51449).
T2 construct: His-tag (N); TurboTEV protease cleavage site (ENLYFQG) (N); made in house; host or cells: E. coli (pHIS1, modified pET vector)
T2 sequence (P51449 with tags, fused parts or gaps): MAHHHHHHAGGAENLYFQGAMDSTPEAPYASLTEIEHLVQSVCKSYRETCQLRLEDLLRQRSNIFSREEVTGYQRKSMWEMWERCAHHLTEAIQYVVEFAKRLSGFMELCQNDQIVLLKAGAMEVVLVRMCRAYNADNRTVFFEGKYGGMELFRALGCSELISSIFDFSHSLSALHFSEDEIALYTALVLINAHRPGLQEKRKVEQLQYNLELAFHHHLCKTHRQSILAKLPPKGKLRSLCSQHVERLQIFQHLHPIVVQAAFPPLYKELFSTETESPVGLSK
Briefly: RORγt ThermoFluor assay (thermal shift, ligand binding affinity). To be noted: estimated from concentration response of thermal shift. On the procedure:
This approach is applicable to a wide variety of systems, and rigorous in theoretical interpretation through quantitation of equilibrium binding constants (KD).
The shift in the melting point described as a ΔTm is proportional to the concentration and affinity of the ligand.
RORγt ThermoFluor® Assay Construct
Protein and compound solutions are dispensed into black 384-well polypropylene PCR microplates (Abgene) and overlayed with silicone oil (1 μL Fluka, type DC 200) to prevent evaporation.
Fluorescence was measured by continuous illumination with UV light (Hamamatsu LC6) supplied via fiber optic and filtered through a band-pass filter (380-400 nm; >6 OD cutoff). Fluorescence emission of the entire 384-well plate was detected by measuring light intensity using a CCD camera (Sensys, Roper Scientific) filtered to detect 500±25 nm, resulting in simultaneous and independent readings of all 384 wells. Images were collected at each temperature, and the sum of the pixel intensity in a given area of the assay plate was recorded versus temperature. Reference wells contained RORγt without compounds, and the assay conditions were as follows: • 0.065 mg/mL RORγt • 60 μM 1,8-ANS • 100 mM Hepes, pH 7.0 • 10 mM NaCl • 2.5 mM GSH • 0.002% Tween-20
Project compounds were arranged in a pre-dosed mother plate (Greiner Bio-one) wherein compounds are serially diluted in 100% DMSO by 1:2 from a high concentration of 10 mM over 12 columns within a series (column 12 is a reference well containing DMSO, no compound).
The compounds were robotically dispensed directly into assay plates (1×=[…]) using a Hummingbird capillary liquid handling instrument (Digilab). Following compound dispense, protein and dye in buffer was added to achieve the final assay volume of 3 μL, followed by 1 μL of silicone oil.

SMILES strings stand for the structures. Where a name gives a salt, the structure may show the parent alone.

On to `COc1ccc(C(O)(c2cccnc2)c2ccc3ncc(-c4ccccc4)c(Cl)c3c2)cc1` (centres unmarked) [Example 59, (4-Chloro-3-phenylquinolin-6-yl)(4-methoxyphenyl)pyridin-3-ylmethanol], for which, at human RORγt LBD, the IC50 was approximately 6 µM and the inhibition at 6 µM was 37%. In addition, the dissociation constant (Kd) in assay [1] is 4.4 µM.
Regarding `COCCCn1cncc1C(O)(c1ccc(Cl)cc1)c1ccc2nc(Cl)c(-c3ccccc3)c(Cl)c2c1` (centres unmarked) [Example 147, (4-Chlorophenyl)(2,4-dichloro-3-phenylquinolin-6-yl)(1-(3-methoxypropyl)-1H-imidazol-5-yl)methanol], on human RORγt LBD, the IC50 was found to be 1.3 µM and the inhibition at 6 µM came to 97%. In assay [1], the Kd was 1.1 µM.
In the same order, the values of `COc1nc2c(C)cc(C(O)(c3ccc(C(F)(F)F)nc3)c3cncn3C)cc2c(C#N)c1-c1cccc(F)c1` (single isomer, unassigned) [Example 179b, 3-(3-Fluorophenyl)-6-(hydroxy(1-methyl-1H-imidazol-5-yl)(6-(trifluoromethyl)pyridin-3-yl)methyl)-2-methoxy-8-methylquinoline-4-carbonitrile] are 1.3 µM, 98% and 6.6 µM.
On to `COc1nc2c(C)cc(C(O)(c3ccc(C(F)(F)F)nc3)c3cncn3C)cc2c(Cl)c1-c1ccc(OC(F)(F)F)cc1` (racemic) [Example 183a, (4-Chloro-2-methoxy-8-methyl-3-(4-(trifluoromethoxy)phenyl)quinolin-6-yl)(1-methyl-1H-imidazol-5-yl)(6-(trifluoromethyl)pyridin-3-yl)methanol•TFA], for which, on human RORγt LBD, the half-maximal inhibitory concentration (IC50) is more than 6 µM. Moreover, the Kd in assay [1] is 0.0093 µM.
Regarding `Cc1cc(C(O)(c2ccc(C(F)(F)F)nc2)c2cncn2C)cc2c(C#N)c(-c3ccc(F)cc3)c(C#N)nc12` (single isomer, unassigned) [Example 184b, 3-(4-Fluorophenyl)-6-(hydroxy(1-methyl-1H-imidazol-5-yl)(6-(trifluoromethyl)pyridin-3-yl)methyl)-8-methylquinoline-2,4-dicarbonitrile], on human RORγt LBD, the 50% inhibitory concentration (IC50) turned out to be 3 µM and the inhibition at 6 µM worked out at 99%. In addition, in assay [1], the Kd is 2.5 µM.
Consider `CCc1nc2ccc(C(O)(c3ccncc3)c3cncn3C)cc2c(CC)c1-c1ccccc1` (centres unmarked) [Example 97, (2,4-Diethyl-3-phenylquinolin-6-yl)(1-methyl-1H-imidazol-5-yl)pyridin-4-ylmethanol•TFA], for which, at human RORγt LBD, the 50% inhibitory concentration (IC50) was 0.58 µM and the inhibition at 6 µM is 100%. The dissociation constant (Kd) in assay [1] is 0.053 µM.
In the same order, the values of `CN1CCCC(C(O)(c2cccnc2)c2ccc3nc(Cl)c(-c4ccccc4)c(Cl)c3c2)C1` (centres unmarked) [Example 94, (2,4-Dichloro-3-phenylquinolin-6-yl)(1-methylpiperidin-3-yl)pyridin-3-ylmethanol•TFA] are more than 6 µM, 43% and 2.4 µM.
In the case of `Cn1cncc1C(O)(c1ccc(C(F)(F)F)nc1)c1ccc2nc(C(F)(F)F)c(-c3ccccc3)c(C#N)c2c1` (racemic) [Example 173a, 6-(Hydroxy(1-methyl-1H-imidazol-5-yl)(6-(trifluoromethyl)pyridin-3-yl)methyl)-3-phenyl-2-(trifluoromethyl)quinoline-4-carbonitrile•TFA], on human RORγt LBD, the inhibition at 6 µM was found to be 103%.
Still for that read-out and setting: with `Cn1cncc1C(O)(c1ccc(C(F)(F)F)nc1)c1ccc2nc(C(F)(F)F)c(-c3ccccc3)c(C#N)c2c1` (single isomer, unassigned) [Example 173b, 6-(Hydroxy(1-methyl-1H-imidazol-5-yl)(6-(trifluoromethyl)pyridin-3-yl)methyl)-3-phenyl-2-(trifluoromethyl)quinoline-4-carbonitrile] the figure was 100%.
Regarding `Cc1ccc(C(O)(c2cc[nH]c2)c2cc(C)c3nc(Cl)c(-c4ccccc4)c(Cl)c3c2)cn1` (centres unmarked) [Example 157, (2,4-Dichloro-8-methyl-3-phenylquinolin-6-yl)(6-methylpyridin-3-yl)(1H-pyrrol-3-yl)methanol•TFA], in assay [1], the Kd is 2.8 µM.
